Assay [1] has as its target cAMP-dependent protein kinase A (Bos taurus) (UniProt P00517+P05131+P31322+P00515).
Description: Activation of cAMP-dependent protein kinase type II

Description for Oryctolagus cuniculus: Activation of cAMP-dependent protein kinase type I

With `Nc1cccc2c1cnn2[C@H]1O[C@@H]2COP(=O)(O)O[C@H]2[C@H]1O`, the K'a in the assay filed under Oryctolagus cuniculus was 0.65; in assay [1], 0.54.

Regarding `O=[N+]([O-])c1cccc2c1ncn2[C@@H]1O[C@@H]2COP(=O)(O)O[C@H]2[C@H]1O`, the K'a turned out to be 0.08 in the assay listed under Oryctolagus cuniculus and 1.56 in assay [1].

Turning to `O=[N+]([O-])c1cccc2c1cnn2[C@@H]1O[C@@H]2COP(=O)(O)O[C@H]2[C@H]1O`, the K'a in the assay filed under Oryctolagus cuniculus is 1.17; in assay [1], 2.5.

Regarding `O=P1(O)OC[C@H]2O[C@@H](n3nnc4ccccc43)[C@H](O)[C@@H]2O1` (stereo in doubt), the K'a in the assay listed under Oryctolagus cuniculus worked out at 0.25; in assay [1] it was 0.7.

In the case of `Nc1cccc2c1nnn2[C@@H]1O[C@@H]2COP(=O)(O)O[C@H]2[C@H]1O`, the values for the K'a (in the assay listed under Oryctolagus cuniculus; in assay [1]) were 0.88 and 0.93, respectively.

On to `O=[N+]([O-])c1cccc2c1nnn2[C@@H]1O[C@@H]2COP(=O)(O)O[C@H]2[C@H]1O`, for which the K'a came out at 0.88 in the assay filed under Oryctolagus cuniculus and 1 in assay [1].

Turning to `Nc1cccc2c1ncn2[C@@H]1O[C@@H]2COP(=O)(O)O[C@H]2[C@H]1O`, the figures for the K'a (in the assay filed under Oryctolagus cuniculus; in assay [1]) were 0.2 and 0.67, respectively.

In the case of `O=P1(O)OC[C@H]2O[C@@H](n3cc4ccccc4n3)[C@H](O)[C@@H]2O1`, the K'a in the assay listed under Oryctolagus cuniculus was determined as 0.14; in assay [1], 1.4.

For `O=P1(O)OC[C@H]2O[C@@H](n3ncc4ccccc43)[C@H](O)[C@@H]2O1`, the values for the K'a (in the assay listed under Oryctolagus cuniculus; in assay [1]) were 0.014 and 0.048, respectively.

Consider `O=P1(O)OC[C@H]2O[C@@H](n3nc4ccccc4n3)[C@H](O)[C@@H]2O1`, for which the values for the K'a (in the assay filed under Oryctolagus cuniculus; in assay [1]) were 0.82 and 3.5, respectively.

Consider `O=P1(O)OC[C@H]2O[C@@H](n3nnc4ccccc43)[C@H](O)[C@@H]2O1` (stereo in doubt; 14), for which the K'a stood at 0.64 in the assay filed under Oryctolagus cuniculus and 0.88 in assay [1].

The values above are taken from ChEMBL document CHEMBL1126248, “Synthesis and enzymatic activity of some new purine ring system analogues of adenosine 3',5'-cyclic monophosphate” (J Med Chem, 1992).
